What is called IC50 is the concentration that inhibits the measured activity by half.

Drawing on patent publication US9073895B2 (Boehringer Ingelheim International GmbH, priority 2010, dated 2015), this text covers IC50 for 25 compounds.

In this test the target is T1, recombinant human FLAP protein (Homo sapiens, UniProt P20292).
T1 construct: made in house; host or cells: Sf9 insect cells (membrane fraction, 100,000 x g pellet)
T1 sequence (P20292 1-161): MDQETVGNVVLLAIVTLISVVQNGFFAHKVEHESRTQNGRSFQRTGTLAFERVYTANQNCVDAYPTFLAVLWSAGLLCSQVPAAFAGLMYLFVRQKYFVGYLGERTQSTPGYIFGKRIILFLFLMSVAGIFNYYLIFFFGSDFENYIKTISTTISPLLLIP
As to the kind of experiment: FLAP binding assay (SPA, displacement of [125I]L-691,831). The settings on record: membranes of sf9 cells expressing human FLAP, [125I]L-691,831 probe; read-out: hFLAP binding IC50. The method, then:
Compounds are assessed for the ability to bind to FLAP in a binding assay that measures compound-specific displacement of an iodinated (^125I) FLAP inhibitor via a Scintillation Proximity Assay format (adapted from S. Charleson et al., Mol. Pharmacol., 1992, 41, 873-879).
Cell pellets produced from sf9 insect cells expressing recombinant human FLAP protein are resuspended in buffer A [15 mM Tris-HCl (pH 7.5), 2 mM MgCl2, 0.3 mM EDTA, 1 mM PMSF]. The cells are lysed with a Dounce homogenizer and the material is centrifuged at 10,000×g for 10 minutes. The supernatant is then collected and centrifuged at 100,000×g for 60 minutes. To prepare membrane protein for an assay, an aliquot of the 100,000×g pellet is resuspended in 1 ml of buffer A, Dounce homogenized, and finally subjected to polytron mixing (30 seconds). Membrane protein (25 μl, 5 μg) is mixed with WGA SPA beads (Amersham) and stirred for 1 h. To an assay plate (Perkin Elmer FlexiPlate) is added 25 μl of test compound prepared in Binding buffer [100 mM Tris (pH 7.5), 140 mM NaCl, 5% glycerol, 2 mM EDTA, 0.5 mM TCEP, 0.05% Tween 20], 25 μl of [^125I]L-691,831 (an iodinated analog of MK-591, Charleson et al. Mol. Pharmacol., 41, 873-879, 1992) and finally 50 μl of the bead/protein mixture. (final concentrations: beads, 200 μg/well; protein, 5μg/well; [^125I] probe, 0 08 nM/well(17 nCi/well). The plates are shaken for 2 h before reading on a Microbeta plate reader. Non-specific binding is determined by the addition of 10 μM cold L-691,831 compound.
A general note: Loss of bound radioactivity is the signal in a displacement assay; it reports binding, not function.
Take `Nc1ncc(-c2ccc(C3(C(=O)Nc4ccnc(O)c4)CCC3)cc2)cn1` [Example 220, 1-[4-(2-aminopyrimidin-5-yl)phenyl]-N-(2-hydroxypyridin-4-yl)cyclobutanecarboxamide]: the 50% inhibitory concentration (IC50) was found to be 470 nM.

As for `Cn1c(=O)c2cc(NC(=O)C3(c4ccc(-c5cnc(N)nc5)cc4)CCOCC3)cnc2n(C)c1=O` [Example 69, 4-[4-(2-aminopyrimidin-5-yl)phenyl]-N-(1,3-dimethyl-2,4-dioxo-1,2,3,4-tetrahydropyrido[2,3-d]pyrimidin-6-yl)tetrahydro-2H-pyran-4-carboxamide], the IC50 worked out at 260 nM.

On to `CC(C)(C)c1ccc(NC(=O)C2(c3ccc(-c4cnc(N)nc4)cc3)CCOCC2)cc1` [Example 17, 4-[4-(2-aminopyrimidin-5-yl)phenyl]-N-(4-tert-butylphenyl)tetrahydro-2H-pyran-4-carboxamide], for which the IC50 is 330 nM.

Consider `Nc1ncc(-c2ccc(C3(C(=O)Nc4nc(-c5ccccc5)ns4)CCC3)cc2)cn1` [Example 242, 1-[4-(2-aminopyrimidin-5-yl)phenyl]-N-(3-phenyl-1,2,4-thiadiazol-5-yl)cyclobutanecarboxamide], for which the IC50 stood at 3.95 nM.

Consider `Nc1ncc(-c2ccc(C3(C(=O)Nc4cccc(S(=O)(=O)C(F)(F)F)c4)CCOCC3)cc2)cn1` [Example 44, 4-[4-(2-aminopyrimidin-5-yl)phenyl]-N-{3-[(trifluoromethyl)sulfonyl]phenyl}tetrahydro-2H-pyran-4-carboxamide], for which the half-inhibitory concentration (IC50) was 270 nM.

In the case of `CCOC(=O)c1ccnc(NC(=O)C2(c3ccc(-c4cnc(N)nc4)cc3)CCOCC2)c1` [Example 84, ethyl 2-[({4-[4-(2-aminopyrimidin-5-yl)phenyl]tetrahydro-2H-pyran-4-yl}carbonyl)amino]pyridine-4-carboxylate], the IC50 was found to be 180 nM.

Turning to `Nc1ncc(-c2ccc(C3(C(=O)Nc4cc(C(F)(F)F)ccn4)CCOCC3)cc2)cn1` [Example 31, 4-[4-(2-aminopyrimidin-5-yl)phenyl]-N-[4-(trifluoromethyl)pyridin-2-yl]tetrahydro-2H-pyran-4-carboxamide], the concentration for half-maximal inhibition (IC50) stood at 140 nM.

Turning to `CCCCCc1ccnc(NC(=O)C2(c3ccc(-c4cnc(N)nc4)cc3)CCOCC2)c1` [Example 161, 4-[4-(2-aminopyrimidin-5-yl)phenyl]-N-(4-pentylpyridin-2-yl)tetrahydro-2H-pyran-4-carboxamide], the concentration for half-maximal inhibition (IC50) is 31 nM.

As for `CC(=O)Nc1ccc(-c2ccc(C3(C(=O)Nc4ccc(-c5csc(C)n5)cn4)CCOCC3)cc2)cn1` [Example 206, 4-{4-[6-(acetylamino)pyridin-3-yl]phenyl}-N-[5-(2-methyl-1,3-thiazol-4-yl)pyridin-2-yl]tetrahydro-2H-pyran-4-carboxamide], the half-inhibitory concentration (IC50) was 270 nM.

For `CN1CCN(c2cccc(NC(=O)C3(c4ccc(-c5cnc(N)nc5)cc4)CCOCC3)c2)CC1` [Example 53, 4-[4-(2-aminopyrimidin-5-yl)phenyl]-N-[3-(4-methylpiperazin-1-yl)phenyl]tetrahydro-2H-pyran-4-carboxamide], the IC50 worked out at 280 nM.

Consider `Cc1ccnc(NC(=O)C2(c3ccc(-c4cnc(N)nc4)cc3)CCOCC2)c1` [Example 140, 4-[4-(2-aminopyrimidin-5-yl)phenyl]-N-(4-methylpyridin-2-yl)tetrahydro-2H-pyran-4-carboxamide], for which the IC50 was found to be 230 nM.

Take `Cc1cccc(NC(=O)C2(c3ccc(-c4cnc(N)nc4)cc3)CCOCC2)n1` [Example 141, 4-[4-(2-aminopyrimidin-5-yl)phenyl]-N-(6-methylpyridin-2-yl)tetrahydro-2H-pyran-4-carboxamide]: the IC50 came to 190 nM.

As to `Nc1ncc(-c2ccc(C3(C(=O)Nc4cc(-c5cccnc5)no4)CCOCC3)cc2)cn1` [Example 57, 4-[4-(2-aminopyrimidin-5-yl)phenyl]-N-[3-(pyridin-3-yl)-1,2-oxazol-5-yl]tetrahydro-2H-pyran-4-carboxamide], the IC50 came out at 260 nM.

As for `Cc1nc(-c2ccc(NC(=O)C3(c4ccc(-c5cnc(N)nc5)cc4)CC3)nc2)cs1` [Example 251, 1-[4-(2-aminopyrimidin-5-yl)phenyl]-N-[5-(2-methyl-1,3-thiazol-4-yl)pyridin-2-yl]cyclopropanecarboxamide], the IC50 came to 16 nM.

As for `Nc1ncc(-c2ccc(C3(C(=O)Nc4ccc5c(c4)CCC5)CCOCC3)cc2)cn1` [Example 6, 4-[4-(2-aminopyrimidin-5-yl)phenyl]-N-(2,3-dihydro-1H-inden-5-yl)tetrahydro-2H-pyran-4-carboxamide], the IC50 was found to be 150 nM.

For `Nc1ncc(-c2ccc(C3(C(=O)Nc4ccc(C(=O)O)cn4)CCOCC3)cc2)cn1` [Example 157, 6-[({4-[4-(2-aminopyrimidin-5-yl)phenyl]tetrahydro-2H-pyran-4-yl}carbonyl)amino]pyridine-3-carboxylic acid], the IC50 came out at 410 nM.

As to `Nc1ncc(-c2ccc(C3(C(=O)Nc4ccc(C(=O)O)cn4)CCC3)cc2)cn1` [Example 96, 6-[({1-[4-(2-aminopyrimidin-5-yl)phenyl]cyclobutyl}carbonyl)amino]pyridine-3-carboxylic acid], the IC50 was determined as 26 nM.

With `Cc1ccc(NC(=O)C2(c3ccc(-c4cnc(N)nc4)cc3)CCOCC2)nc1` [Example 139, 4-[4-(2-aminopyrimidin-5-yl)phenyl]-N-(5-methylpyridin-2-yl)tetrahydro-2H-pyran-4-carboxamide], the IC50 came to 110 nM.

On to `Nc1ncc(-c2ccc(C3(C(=O)Nc4ccc(Cc5ccncc5)cc4)CCOCC3)cc2)cn1` [Example 28, 4-[4-(2-aminopyrimidin-5-yl)phenyl]-N-[4-(pyridin-4-ylmethyl)phenyl]tetrahydro-2H-pyran-4-carboxamide], for which the half-maximal inhibitory concentration (IC50) was 121 nM.

For the compound `COc1ccc(-c2nc(NC(=O)C3(c4ccc(-c5cnc(N)nc5)cc4)CCC3)n[nH]2)cc1` [Example 244, 1-[4-(2-aminopyrimidin-5-yl)phenyl]-N-[5-(4-methoxyphenyl)-1H-1,2,4-triazol-3-yl]cyclobutanecarboxamide], the concentration for half-maximal inhibition (IC50) came to 10.8 nM.

Regarding `Nc1ncc(-c2ccc(C3(C(=O)Nc4cc(-c5ccccn5)no4)CCOCC3)cc2)cn1` [Example 56, 4-[4-(2-aminopyrimidin-5-yl)phenyl]-N-[3-(pyridin-2-yl)-1,2-oxazol-5-yl]tetrahydro-2H-pyran-4-carboxamide], the IC50 stood at 380 nM.

For `Nc1ncc(-c2ccc(C3(C(=O)Nc4ccccc4-c4ccccc4)CCC3)cc2)cn1` [Example 202, 1-[4-(2-aminopyrimidin-5-yl)phenyl]-N-(biphenyl-2-yl)cyclobutanecarboxamide], the IC50 turned out to be 56.5 nM.

For the compound `Nc1ncc(-c2ccc(C3(C(=O)Nc4ccc(O)c(C(=O)O)c4)CCC3)cc2)cn1` [Example 101, 5-[({1-[4-(2-aminopyrimidin-5-yl)phenyl]cyclobutyl}carbonyl)amino]-2-hydroxybenzoic acid], the IC50 came out at 47 nM.

For the compound `CC(=O)N1CCc2cc(NC(=O)C3(c4ccc(-c5cnc(N)nc5)cc4)CCOCC3)ccc21` [Example 42, N-(1-acetyl-2,3-dihydro-1H-indol-5-yl)-4-[4-(2-aminopyrimidin-5-yl)phenyl]tetrahydro-2H-pyran-4-carboxamide], the IC50 is 310 nM.

In the case of `Cc1cc(NC(=O)C2(c3ccc(-c4cnc(N)nc4)cc3)CCC2)nc(C)n1` [Example 212, 1-[4-(2-aminopyrimidin-5-yl)phenyl]-N-(2,6-dimethylpyrimidin-4-yl)cyclobutanecarboxamide], the IC50 amounted to 15 nM.
